The values that follow come from patent US11046704B2, “Derivatives of porphyrins, their process of preparation and their use for treating viral infections” (INSTITUT NATIONAL DE LA SANTE ET DE LA RECHERCHE MEDICALE …, priority 2015, dated 2021).

For the experiment, the system named is HIV-1. Kind of experiment: Viral infectivity test on HeLa P4 cells. The experiment is classed as cell-based. As for the experimental part:
FIG. 2: Effects of G4 ligands compared with AZT on HIV-1 infectivity using the HeLa P4 cell system for studying the replication of HIV-1. The HeLa P4 cells contain a gene lacZ encoding beta-galactosidase under the control of the viral LTR and whose transcription is activated by the viral protein Tat. The cells are incubated with the ligand then infected with HIV-1. After 24 hours the activity of beta-galactosidase, which is proportional to the infectivity of the virus is then measured on a fluorescence plate reader.
C. Cell lines and viruses: HeLa P4 cells encoding a Tat-inducible β-galactosidase were maintained in DMEM medium (Invitrogen) supplemented with 10% inactivated FCS, 1 mg/ml geneticin (G418, Gibco-BRL), gentamycin. MT4 and H9LaI cells were grown in RPMI 1640 glutamax medium (Invitrogen) supplemented with 10% inactivated FCS. HIV-1 viruses were obtained after 48 h co-culture of MT4 cells (0.5×10^6/ml) and H9Laï cells (1×10^6/ml), chronically infected by HIV-1LaI isolate, in RPMI 1640 glutamax medium supplemented with 10% inactivated FCS, at 37° C. under humidified atmosphere and […]. […]
D. Viral infectivity test: The G4 ligands are incubated in presence of the HelaP4 cells 20 minutes before infection. […] After 24 h, the reaction was measured in a fluorescence microplate reader (Cytofluor II, Applied Biosystems) at 360/460 nm Ex/Em.

Usually IC50 stands for the concentration that gives 50% inhibition. Take `Cc1cn([C@H]2C[C@H](N=[N+]=[N-])[C@@H](CO)O2)c(=O)[nH]c1=O` [AZT]: the midpoint of inhibition (24 h of infection, beta-galactosidase readout), the IC50, lay at 40 nM. On to `C[n+]1ccc(-c2c3nc(c(-c4cc[n+](C)cc4)c4ccc([nH]4)c(-c4cc[n+](C)cc4)c4ccc([nH]4)c(-c4cc[n+](C)cc4)c4nc2C=C4)C=C3)cc1` [Tmpyp4], for which the “inhibition of viral replication” value is on record as “weak inhibitors of viral replication”.
